Results: ChEMBL document CHEMBL4507289, “Data for DCP probe GSM1” (2021)
The source made the active and inactive calls.

Key:
[1] = target: Amyloid-beta precursor protein (Homo sapiens, UniProt P05067); experiment: Aβ42 inhibition assay
[2] = tested on: Tyrosine-protein kinase ABL1 (Homo sapiens), P00519 [F317L]; conditions: Compound concentration 1000.0 nM
[3] = tested on: Tyrosine-protein kinase ABL1 (Homo sapiens), P00519 [M351T]; conditions: Compound concentration 1000.0 nM
[4] = tested on: Tyrosine-protein kinase ABL1 (Homo sapiens), P00519 [T315I]; conditions: Compound concentration 1000.0 nM
[5] = target: Activin receptor type-1-like (Homo sapiens) (UniProt P37023); conditions: Compound concentration 1000.0 nM
[6] = target: Calcium/calmodulin-dependent protein kinase type 1 (Homo sapiens) (UniProt Q14012); conditions: Compound concentration 1000.0 nM
[7] = target: Calcium/calmodulin-dependent protein kinase type II subunit gamma (Homo sapiens) (UniProt Q13555); conditions: Compound concentration 1000.0 nM
[8] = target: Cyclin-dependent kinase 9 (Homo sapiens) (UniProt P50750); conditions: Compound concentration 1000.0 nM
[9] = target: Dual specificity protein kinase CLK1 (Homo sapiens) (UniProt P49759); conditions: Compound concentration 1000.0 nM
[10] = target: Dual specificity protein kinase CLK2 (Homo sapiens) (UniProt P49760); conditions: Compound concentration 1000.0 nM
[11] = target: Macrophage colony-stimulating factor 1 receptor (Homo sapiens) (UniProt P07333); conditions: Compound concentration 1000.0 nM
[12] = target: Myotonin-protein kinase (Homo sapiens) (UniProt Q09013); conditions: Compound concentration 1000.0 nM
[13] = target: Dual specificity tyrosine-phosphorylation-regulated kinase 1B (Homo sapiens) (UniProt Q9Y463); conditions: Compound concentration 1000.0 nM
[14] = tested on: Epidermal growth factor receptor (Homo sapiens), P00533 [UNDEFINED MUTATION]; conditions: Compound concentration 1000.0 nM
[15] = target: Mitogen-activated protein kinase 7 (Homo sapiens) (UniProt Q13164); conditions: Compound concentration 1000.0 nM
[16] = target: Cyclin-G-associated kinase (Homo sapiens) (UniProt O14976); conditions: Compound concentration 1000.0 nM
[17] = target: Glycogen synthase kinase-3 beta (Homo sapiens) (UniProt P49841); conditions: Compound concentration 1000.0 nM
[18] = target: Homeodomain-interacting protein kinase 3 (Homo sapiens) (UniProt Q9H422); conditions: Compound concentration 1000.0 nM
[19] = target: Hormonally up-regulated neu tumor-associated kinase (Homo sapiens) (UniProt P57058); conditions: Compound concentration 1000.0 nM
[20] = target: Tyrosine-protein kinase ITK/TSK (Homo sapiens) (UniProt Q08881); conditions: Compound concentration 1000.0 nM
[21] = target: Tyrosine-protein kinase Lyn (Homo sapiens) (UniProt P07948); conditions: Compound concentration 1000.0 nM
[22] = target: Mitogen-activated protein kinase kinase kinase kinase 2 (Homo sapiens) (UniProt Q12851); conditions: Compound concentration 1000.0 nM
[23] = target: Microtubule-associated serine/threonine-protein kinase 1 (Homo sapiens) (UniProt Q9Y2H9); conditions: Compound concentration 1000.0 nM
[24] = target: Hepatocyte growth factor receptor (Homo sapiens) (UniProt P08581); conditions: Compound concentration 1000.0 nM
[25] = target: Mitogen-activated protein kinase kinase kinase 10 (Homo sapiens) (UniProt Q02779); conditions: Compound concentration 1000.0 nM
[26] = target: Macrophage-stimulating protein receptor (Homo sapiens) (UniProt Q04912); conditions: Compound concentration 1000.0 nM
[27] = target: Calcium-dependent protein kinase 1 (Plasmodium falciparum) (UniProt P62344); conditions: Compound concentration 1000.0 nM
[28] = target: Cyclin-dependent kinase 2 homolog (Plasmodium falciparum (isolate 3D7)) (UniProt P61075); conditions: Compound concentration 1000.0 nM
[29] = target: Phosphatidylinositol 4,5-bisphosphate 3-kinase catalytic subunit alpha isoform (Homo sapiens) (UniProt P42336); conditions: Compound concentration 1000.0 nM
[30] = tested on: Phosphatidylinositol 4,5-bisphosphate 3-kinase catalytic subunit alpha isoform (Homo sapiens), P42336 [C420R]; conditions: Compound concentration 1000.0 nM
[31] = target: Phosphatidylinositol 4-kinase beta (Homo sapiens) (UniProt Q9UBF8); conditions: Compound concentration 1000.0 nM
[32] = target: cAMP-dependent protein kinase catalytic subunit alpha (Homo sapiens) (UniProt P17612); conditions: Compound concentration 1000.0 nM
[33] = target: Serine/threonine-protein kinase D3 (Homo sapiens) (UniProt O94806); conditions: Compound concentration 1000.0 nM
[34] = target: RAF proto-oncogene serine/threonine-protein kinase (Homo sapiens) (UniProt P04049); conditions: Compound concentration 1000.0 nM
[35] = target: Serine/threonine-protein kinase 16 (Homo sapiens) (UniProt O75716); conditions: Compound concentration 1000.0 nM
[36] = target: Serine/threonine-protein kinase TBK1 (Homo sapiens) (UniProt Q9UHD2); conditions: Compound concentration 1000.0 nM
[37] = target: Tyrosine-protein kinase ZAP-70 (Homo sapiens) (UniProt P43403); conditions: Compound concentration 1000.0 nM
[38] = target: 5-hydroxytryptamine receptor 3A (Homo sapiens) (UniProt P46098); conditions: Compound concentration 10.0 uM
[39] = target: D(3) dopamine receptor (Homo sapiens) (UniProt P35462); conditions: Compound concentration 10.0 uM
[40] = target: D(4) dopamine receptor (Homo sapiens) (UniProt P21917); conditions: Compound concentration 10.0 uM
[41] = target: D(1B) dopamine receptor (Homo sapiens) (UniProt P21918); conditions: Compound concentration 10.0 uM
[42] = target: GABA-A receptor; anion channel (Rattus norvegicus) (UniProt O09028+P15431+P18506+P18508+P19969+P20236+P23574+P23576+P28471+P28473+P30191+P62813+P63079+P63138+Q91ZM7+Q9ES14); conditions: Compound concentration 10.0 uM
[43] = target: Alpha-2B adrenergic receptor (Homo sapiens) (UniProt P18089); conditions: Compound concentration 10.0 uM
[44] = target: Muscarinic acetylcholine receptor M4 (Homo sapiens) (UniProt P08173); conditions: Compound concentration 10.0 uM

Sequence of RAF proto-oncogene serine/threonine-protein kinase (Homo sapiens) (P04049 whole entry): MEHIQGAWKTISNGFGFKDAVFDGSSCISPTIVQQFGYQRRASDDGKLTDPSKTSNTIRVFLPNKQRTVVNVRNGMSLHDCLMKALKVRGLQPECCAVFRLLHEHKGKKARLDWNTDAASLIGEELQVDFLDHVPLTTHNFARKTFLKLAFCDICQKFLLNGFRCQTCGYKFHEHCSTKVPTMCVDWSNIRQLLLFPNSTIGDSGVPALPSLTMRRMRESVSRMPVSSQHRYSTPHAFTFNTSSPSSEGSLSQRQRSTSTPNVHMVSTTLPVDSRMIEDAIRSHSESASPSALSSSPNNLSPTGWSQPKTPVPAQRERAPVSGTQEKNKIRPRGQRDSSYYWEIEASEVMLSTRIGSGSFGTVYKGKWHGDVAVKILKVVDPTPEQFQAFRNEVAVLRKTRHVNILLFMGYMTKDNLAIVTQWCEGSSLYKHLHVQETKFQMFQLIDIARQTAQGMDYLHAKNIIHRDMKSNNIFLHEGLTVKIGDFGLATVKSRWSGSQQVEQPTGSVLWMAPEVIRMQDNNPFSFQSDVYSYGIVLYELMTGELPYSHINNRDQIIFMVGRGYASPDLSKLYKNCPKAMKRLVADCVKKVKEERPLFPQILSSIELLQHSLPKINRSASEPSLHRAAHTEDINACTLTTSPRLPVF
Sequence of Myotonin-protein kinase (Homo sapiens) (Q09013 whole entry): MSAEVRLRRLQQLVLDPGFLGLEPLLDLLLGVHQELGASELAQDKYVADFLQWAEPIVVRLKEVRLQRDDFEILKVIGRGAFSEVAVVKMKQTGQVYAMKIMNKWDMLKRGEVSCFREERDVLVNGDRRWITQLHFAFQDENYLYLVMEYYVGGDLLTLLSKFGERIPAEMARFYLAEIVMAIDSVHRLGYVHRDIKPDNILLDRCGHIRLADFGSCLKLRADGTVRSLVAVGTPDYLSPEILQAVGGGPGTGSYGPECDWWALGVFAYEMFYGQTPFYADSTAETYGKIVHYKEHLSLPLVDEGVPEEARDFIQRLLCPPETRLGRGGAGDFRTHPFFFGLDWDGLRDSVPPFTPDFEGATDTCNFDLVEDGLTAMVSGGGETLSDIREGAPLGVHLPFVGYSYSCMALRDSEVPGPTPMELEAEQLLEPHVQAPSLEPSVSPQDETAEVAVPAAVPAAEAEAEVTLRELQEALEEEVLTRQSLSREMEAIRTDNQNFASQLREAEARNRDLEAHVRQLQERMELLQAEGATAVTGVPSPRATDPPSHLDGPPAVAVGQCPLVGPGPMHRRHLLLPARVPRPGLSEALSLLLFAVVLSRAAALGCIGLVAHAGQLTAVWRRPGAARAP
Sequence of Homeodomain-interacting protein kinase 3 (Homo sapiens) (Q9H422 whole entry, looked up): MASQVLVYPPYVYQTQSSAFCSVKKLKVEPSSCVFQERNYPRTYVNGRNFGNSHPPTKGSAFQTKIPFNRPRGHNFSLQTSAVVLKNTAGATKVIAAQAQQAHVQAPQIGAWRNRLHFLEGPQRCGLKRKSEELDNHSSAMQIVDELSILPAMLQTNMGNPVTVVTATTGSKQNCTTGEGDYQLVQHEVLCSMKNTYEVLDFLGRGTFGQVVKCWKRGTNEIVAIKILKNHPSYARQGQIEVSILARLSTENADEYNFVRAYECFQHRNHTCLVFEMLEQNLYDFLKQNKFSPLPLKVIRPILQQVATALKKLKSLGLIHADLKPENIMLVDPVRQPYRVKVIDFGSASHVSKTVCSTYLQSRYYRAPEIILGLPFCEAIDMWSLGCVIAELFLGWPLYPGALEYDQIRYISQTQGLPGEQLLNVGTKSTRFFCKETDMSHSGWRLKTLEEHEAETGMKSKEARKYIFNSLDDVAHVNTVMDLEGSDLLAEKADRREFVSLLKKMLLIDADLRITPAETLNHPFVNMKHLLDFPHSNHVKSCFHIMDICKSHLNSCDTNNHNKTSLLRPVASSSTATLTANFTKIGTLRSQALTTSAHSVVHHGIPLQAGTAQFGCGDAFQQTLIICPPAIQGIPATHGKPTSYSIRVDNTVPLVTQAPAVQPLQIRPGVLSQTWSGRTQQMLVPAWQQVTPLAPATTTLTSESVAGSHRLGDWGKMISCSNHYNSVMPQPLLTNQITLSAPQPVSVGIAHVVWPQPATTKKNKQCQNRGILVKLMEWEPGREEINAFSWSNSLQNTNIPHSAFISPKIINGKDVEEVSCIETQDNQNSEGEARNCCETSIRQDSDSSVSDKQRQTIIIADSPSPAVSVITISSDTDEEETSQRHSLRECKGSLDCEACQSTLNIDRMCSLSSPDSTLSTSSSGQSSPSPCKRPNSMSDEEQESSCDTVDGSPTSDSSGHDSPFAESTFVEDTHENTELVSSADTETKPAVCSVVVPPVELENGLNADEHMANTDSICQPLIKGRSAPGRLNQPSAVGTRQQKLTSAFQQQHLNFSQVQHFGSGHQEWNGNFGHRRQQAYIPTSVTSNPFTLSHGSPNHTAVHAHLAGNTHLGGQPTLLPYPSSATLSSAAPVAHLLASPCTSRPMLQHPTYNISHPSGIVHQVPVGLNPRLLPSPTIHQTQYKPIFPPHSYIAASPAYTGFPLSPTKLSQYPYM
Sequence of Calcium/calmodulin-dependent protein kinase type II subunit gamma (Homo sapiens) (Q13555 whole entry): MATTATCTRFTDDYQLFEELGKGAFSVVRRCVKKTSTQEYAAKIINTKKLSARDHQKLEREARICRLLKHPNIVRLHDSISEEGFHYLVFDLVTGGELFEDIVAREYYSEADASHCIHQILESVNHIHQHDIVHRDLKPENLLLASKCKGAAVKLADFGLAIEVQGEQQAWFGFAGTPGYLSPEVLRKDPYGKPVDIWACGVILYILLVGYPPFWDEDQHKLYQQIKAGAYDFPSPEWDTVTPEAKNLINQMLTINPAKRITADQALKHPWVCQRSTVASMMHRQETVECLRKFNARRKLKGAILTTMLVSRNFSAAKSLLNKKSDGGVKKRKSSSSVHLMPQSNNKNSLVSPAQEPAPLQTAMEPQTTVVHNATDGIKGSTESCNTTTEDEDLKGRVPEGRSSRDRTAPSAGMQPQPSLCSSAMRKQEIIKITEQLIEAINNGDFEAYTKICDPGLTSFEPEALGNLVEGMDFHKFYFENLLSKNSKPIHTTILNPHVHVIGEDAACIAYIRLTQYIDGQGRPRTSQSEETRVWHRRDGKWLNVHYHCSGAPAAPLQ
Sequence of Alpha-2B adrenergic receptor (Homo sapiens) (P18089 whole entry): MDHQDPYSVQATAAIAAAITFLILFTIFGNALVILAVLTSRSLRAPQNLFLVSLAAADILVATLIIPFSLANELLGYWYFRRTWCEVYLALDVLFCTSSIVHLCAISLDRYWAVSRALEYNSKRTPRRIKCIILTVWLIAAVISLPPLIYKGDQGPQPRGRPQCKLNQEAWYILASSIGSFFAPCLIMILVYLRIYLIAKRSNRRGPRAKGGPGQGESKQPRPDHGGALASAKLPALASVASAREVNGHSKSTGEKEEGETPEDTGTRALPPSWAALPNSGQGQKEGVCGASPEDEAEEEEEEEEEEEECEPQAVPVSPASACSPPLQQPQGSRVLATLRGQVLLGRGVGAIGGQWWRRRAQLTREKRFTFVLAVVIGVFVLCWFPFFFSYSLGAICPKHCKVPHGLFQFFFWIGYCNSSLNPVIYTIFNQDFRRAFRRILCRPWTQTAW
Sequence of Dual specificity protein kinase CLK1 (Homo sapiens) (P49759 whole entry, looked up): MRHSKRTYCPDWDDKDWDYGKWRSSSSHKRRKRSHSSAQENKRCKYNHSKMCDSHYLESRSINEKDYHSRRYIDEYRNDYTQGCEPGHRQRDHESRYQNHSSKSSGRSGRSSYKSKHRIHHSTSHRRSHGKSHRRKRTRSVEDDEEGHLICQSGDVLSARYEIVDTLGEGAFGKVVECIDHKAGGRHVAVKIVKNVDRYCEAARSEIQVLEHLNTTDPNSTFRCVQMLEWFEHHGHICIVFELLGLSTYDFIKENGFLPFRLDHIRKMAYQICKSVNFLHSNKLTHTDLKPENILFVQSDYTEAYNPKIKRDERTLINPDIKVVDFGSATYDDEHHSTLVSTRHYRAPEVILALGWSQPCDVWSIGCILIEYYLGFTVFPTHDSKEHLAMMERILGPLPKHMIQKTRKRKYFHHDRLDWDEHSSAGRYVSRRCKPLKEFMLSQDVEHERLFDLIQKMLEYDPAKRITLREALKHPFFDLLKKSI
Sequence of Cyclin-dependent kinase 9 (Homo sapiens) (P50750 whole entry): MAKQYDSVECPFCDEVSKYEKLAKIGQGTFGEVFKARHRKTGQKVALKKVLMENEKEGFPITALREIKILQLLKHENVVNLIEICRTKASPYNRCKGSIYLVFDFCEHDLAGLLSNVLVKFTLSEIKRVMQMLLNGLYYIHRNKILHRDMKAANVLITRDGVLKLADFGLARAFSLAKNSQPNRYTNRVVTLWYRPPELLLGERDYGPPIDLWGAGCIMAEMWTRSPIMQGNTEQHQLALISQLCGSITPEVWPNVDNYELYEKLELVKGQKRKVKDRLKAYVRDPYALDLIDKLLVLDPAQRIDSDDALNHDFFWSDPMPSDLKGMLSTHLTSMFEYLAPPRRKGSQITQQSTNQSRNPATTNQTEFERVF
Sequence of Cyclin-dependent kinase 2 homolog (Plasmodium falciparum (isolate 3D7)) (P61075 whole entry, canonical isoform): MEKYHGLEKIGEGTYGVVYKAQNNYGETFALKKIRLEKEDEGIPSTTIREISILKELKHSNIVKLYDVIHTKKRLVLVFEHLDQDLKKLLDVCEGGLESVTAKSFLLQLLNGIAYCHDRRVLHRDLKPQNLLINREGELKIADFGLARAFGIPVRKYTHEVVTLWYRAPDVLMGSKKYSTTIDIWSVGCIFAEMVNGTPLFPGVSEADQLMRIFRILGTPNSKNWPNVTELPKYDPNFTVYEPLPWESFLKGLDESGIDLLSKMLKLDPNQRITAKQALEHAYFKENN
Sequence of Calcium/calmodulin-dependent protein kinase type 1 (Homo sapiens) (Q14012 whole entry, looked up): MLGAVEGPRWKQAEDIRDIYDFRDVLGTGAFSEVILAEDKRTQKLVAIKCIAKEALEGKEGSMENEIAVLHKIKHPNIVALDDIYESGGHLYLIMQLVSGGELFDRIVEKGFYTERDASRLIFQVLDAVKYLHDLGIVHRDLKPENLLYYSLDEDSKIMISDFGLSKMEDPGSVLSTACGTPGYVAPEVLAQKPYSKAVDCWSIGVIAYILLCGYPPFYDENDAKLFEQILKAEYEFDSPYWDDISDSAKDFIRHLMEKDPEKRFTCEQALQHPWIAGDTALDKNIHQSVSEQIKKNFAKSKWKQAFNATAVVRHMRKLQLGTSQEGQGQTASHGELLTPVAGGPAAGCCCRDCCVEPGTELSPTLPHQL

COc1cc(-c2cn([C@H]3CCc4c(F)cccc4N(CC(F)(F)F)C3=O)nn2)ccc1-n1cnc(C)c1
inactive: residual activity [2] 85% | residual activity [3] 95% | residual activity [4] 83% | residual activity [5] 100% | residual activity [6] 100% | residual activity [7] 100% | residual activity [8] 97% | residual activity [9] 77% | residual activity [10] 100% | residual activity [11] 86% | residual activity [12] 99% | residual activity [13] 100% | residual activity [14] 96% | residual activity [15] 80% | residual activity [16] 88% | residual activity [17] 100% | residual activity [18] 100% | residual activity [19] 100% | residual activity [20] 100% | residual activity [21] 100% | residual activity [22] 100% | residual activity [23] 100% | residual activity [24] 100% | residual activity [25] 100% | residual activity [26] 100% | residual activity [27] 100% | residual activity [28] 100% | residual activity [29] 94% | residual activity [30] 75% | residual activity [31] 79% | residual activity [32] 100% | residual activity [33] 100% | residual activity [34] 100% | residual activity [35] 100% | residual activity [36] 100% | residual activity [37] 100% | inhibition [38] -8% | inhibition [39] 3.33% | inhibition [40] -7.76% | inhibition [41] -8.33% | inhibition [42] 22.6% | inhibition [43] 31.1% | inhibition [44] 26.2%
active: IC50 [1] 0.031 µM

COc1cc(-c2cn([C@H]3CCc4ccccc4N(CC(F)(F)F)C3=O)nn2)ccc1-n1ccc(C)n1
inactive: residual activity [2] 64% | residual activity [3] 64% | residual activity [4] 70% | residual activity [5] 100% | residual activity [6] 100% | residual activity [7] 100% | residual activity [8] 100% | residual activity [9] 87% | residual activity [10] 100% | residual activity [11] 92% | residual activity [12] 96% | residual activity [13] 100% | residual activity [14] 100% | residual activity [15] 100% | residual activity [16] 92% | residual activity [17] 85% | residual activity [18] 83% | residual activity [19] 100% | residual activity [20] 100% | residual activity [21] 100% | residual activity [22] 80% | residual activity [23] 100% | residual activity [24] 100% | residual activity [25] 96% | residual activity [26] 96% | residual activity [27] 99% | residual activity [28] 100% | residual activity [29] 69% | residual activity [30] 68% | residual activity [31] 87% | residual activity [32] 100% | residual activity [33] 100% | residual activity [34] 98% | residual activity [35] 100% | residual activity [36] 88% | residual activity [37] 82% | inhibition [38] -9.73% | inhibition [39] 22% | inhibition [41] 20.1% | inhibition [42] -6.73% | inhibition [43] 7.14% | inhibition [44] 6.94%
active: inhibition [40] 52.4%
> 10 µM (not active): IC50 [1]
